Data reported in patent publication US20240269139A1, “COMPOUNDS FOR TARGETED PROTEIN DEGRADATION OF KINASES” (DANA-FARBER CANCER INSTITUTE, INC., priority 2020, published 2024).
Where two headings read alike, the source gives them in different places.

Key:
Assay type in all cases: cell-based
[1] = molecular target: protein kinases (human kinome) (Homo sapiens, UniProt P11802)
[2] = molecular target: protein kinases (human kinome) (Homo sapiens, UniProt P16591); settings: for logFC of FER (P16591-1): down; for logFC of FER: FER P16591-1
[3] = molecular target: protein kinases (human kinome) (Homo sapiens, UniProt P53671); settings: for logFC LIMK2: LIMK2 (P53671), down; for logFC of LIMK2: LIMK2 P53671
[4] = molecular target: protein kinases (human kinome) (Homo sapiens, UniProt Q2M2I8)
[5] = molecular target: T1, protein kinases (human kinome) (Homo sapiens, UniProt Q9NYY8); settings: Experiment wp016, 1 uM; direction down
T1 sequence (Q9NYY8 1-710): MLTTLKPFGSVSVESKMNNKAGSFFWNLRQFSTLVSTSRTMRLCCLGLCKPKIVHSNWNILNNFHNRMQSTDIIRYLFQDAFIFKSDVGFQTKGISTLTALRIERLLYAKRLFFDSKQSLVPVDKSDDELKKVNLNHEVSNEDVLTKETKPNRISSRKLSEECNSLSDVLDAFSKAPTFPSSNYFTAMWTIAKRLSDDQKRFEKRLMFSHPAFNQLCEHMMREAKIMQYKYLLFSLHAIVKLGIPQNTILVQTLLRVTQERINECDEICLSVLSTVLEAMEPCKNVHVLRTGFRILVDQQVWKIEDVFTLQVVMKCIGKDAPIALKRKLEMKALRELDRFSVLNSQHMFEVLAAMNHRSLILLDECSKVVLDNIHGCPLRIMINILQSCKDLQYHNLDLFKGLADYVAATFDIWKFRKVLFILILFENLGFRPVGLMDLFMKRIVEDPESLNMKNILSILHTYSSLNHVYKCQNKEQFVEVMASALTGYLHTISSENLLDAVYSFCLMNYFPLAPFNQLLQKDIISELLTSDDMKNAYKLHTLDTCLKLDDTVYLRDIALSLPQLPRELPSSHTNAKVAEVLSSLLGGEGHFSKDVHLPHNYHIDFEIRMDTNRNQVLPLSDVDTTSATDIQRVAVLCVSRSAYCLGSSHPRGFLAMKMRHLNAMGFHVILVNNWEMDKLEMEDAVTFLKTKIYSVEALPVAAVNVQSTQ

[6] = test system: protein kinases (human kinome); settings: for logFC ABL1: ABL1 (P00519-2); for logFC / logFC AURKB: AURKB Q96GD4-5; for logFC BUB1B: Accession O60566-3, direction down; for logFC of SRC: Accession P12931-2

protein kinases (human kinome) (Homo sapiens, UniProt Q2M2I8), sequence (Q2M2I8 whole entry): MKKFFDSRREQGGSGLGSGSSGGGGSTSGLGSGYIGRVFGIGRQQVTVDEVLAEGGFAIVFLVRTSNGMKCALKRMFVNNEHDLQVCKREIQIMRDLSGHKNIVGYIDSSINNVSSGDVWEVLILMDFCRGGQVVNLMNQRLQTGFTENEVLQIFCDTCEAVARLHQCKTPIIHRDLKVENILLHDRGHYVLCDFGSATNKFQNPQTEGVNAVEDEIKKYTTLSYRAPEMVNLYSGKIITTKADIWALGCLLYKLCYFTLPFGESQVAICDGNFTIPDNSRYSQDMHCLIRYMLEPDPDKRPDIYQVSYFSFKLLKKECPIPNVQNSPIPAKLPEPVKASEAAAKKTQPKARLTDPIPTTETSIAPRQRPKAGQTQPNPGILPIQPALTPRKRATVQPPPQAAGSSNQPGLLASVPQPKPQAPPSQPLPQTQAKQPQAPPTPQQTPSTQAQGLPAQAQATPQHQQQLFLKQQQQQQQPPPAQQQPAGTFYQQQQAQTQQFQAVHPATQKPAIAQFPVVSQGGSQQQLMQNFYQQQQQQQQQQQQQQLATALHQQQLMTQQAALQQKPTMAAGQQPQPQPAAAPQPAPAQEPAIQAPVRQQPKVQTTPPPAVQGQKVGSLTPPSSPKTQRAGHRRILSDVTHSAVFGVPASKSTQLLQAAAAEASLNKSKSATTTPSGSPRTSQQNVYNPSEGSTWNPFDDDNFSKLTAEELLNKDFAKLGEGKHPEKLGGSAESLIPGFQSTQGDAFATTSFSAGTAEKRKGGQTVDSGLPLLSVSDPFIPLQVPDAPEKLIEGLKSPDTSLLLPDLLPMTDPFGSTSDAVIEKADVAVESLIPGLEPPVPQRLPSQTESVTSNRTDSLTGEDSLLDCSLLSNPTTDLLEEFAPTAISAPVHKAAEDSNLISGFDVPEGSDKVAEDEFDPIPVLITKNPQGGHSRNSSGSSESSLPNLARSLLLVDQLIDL
protein kinases (human kinome) (Homo sapiens, UniProt P53671), sequence (P53671 whole entry): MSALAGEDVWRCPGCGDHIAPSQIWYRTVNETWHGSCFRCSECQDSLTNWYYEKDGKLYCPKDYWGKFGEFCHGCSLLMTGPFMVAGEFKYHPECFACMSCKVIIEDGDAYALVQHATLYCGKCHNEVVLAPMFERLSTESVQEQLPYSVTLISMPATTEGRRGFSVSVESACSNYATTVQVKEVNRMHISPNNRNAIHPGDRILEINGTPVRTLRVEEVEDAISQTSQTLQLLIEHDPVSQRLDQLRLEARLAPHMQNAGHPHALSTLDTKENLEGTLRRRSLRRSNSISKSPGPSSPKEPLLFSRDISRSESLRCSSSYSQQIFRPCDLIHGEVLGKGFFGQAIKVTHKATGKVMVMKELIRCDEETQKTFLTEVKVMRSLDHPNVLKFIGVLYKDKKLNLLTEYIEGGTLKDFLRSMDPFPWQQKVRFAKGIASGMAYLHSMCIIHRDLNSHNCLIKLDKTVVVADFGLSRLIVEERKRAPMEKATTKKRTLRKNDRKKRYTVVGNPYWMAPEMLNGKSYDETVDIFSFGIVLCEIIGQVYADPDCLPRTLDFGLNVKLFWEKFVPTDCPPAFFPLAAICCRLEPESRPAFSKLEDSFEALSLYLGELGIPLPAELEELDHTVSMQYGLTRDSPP
protein kinases (human kinome) (Homo sapiens, UniProt P16591), sequence (P16591 whole entry): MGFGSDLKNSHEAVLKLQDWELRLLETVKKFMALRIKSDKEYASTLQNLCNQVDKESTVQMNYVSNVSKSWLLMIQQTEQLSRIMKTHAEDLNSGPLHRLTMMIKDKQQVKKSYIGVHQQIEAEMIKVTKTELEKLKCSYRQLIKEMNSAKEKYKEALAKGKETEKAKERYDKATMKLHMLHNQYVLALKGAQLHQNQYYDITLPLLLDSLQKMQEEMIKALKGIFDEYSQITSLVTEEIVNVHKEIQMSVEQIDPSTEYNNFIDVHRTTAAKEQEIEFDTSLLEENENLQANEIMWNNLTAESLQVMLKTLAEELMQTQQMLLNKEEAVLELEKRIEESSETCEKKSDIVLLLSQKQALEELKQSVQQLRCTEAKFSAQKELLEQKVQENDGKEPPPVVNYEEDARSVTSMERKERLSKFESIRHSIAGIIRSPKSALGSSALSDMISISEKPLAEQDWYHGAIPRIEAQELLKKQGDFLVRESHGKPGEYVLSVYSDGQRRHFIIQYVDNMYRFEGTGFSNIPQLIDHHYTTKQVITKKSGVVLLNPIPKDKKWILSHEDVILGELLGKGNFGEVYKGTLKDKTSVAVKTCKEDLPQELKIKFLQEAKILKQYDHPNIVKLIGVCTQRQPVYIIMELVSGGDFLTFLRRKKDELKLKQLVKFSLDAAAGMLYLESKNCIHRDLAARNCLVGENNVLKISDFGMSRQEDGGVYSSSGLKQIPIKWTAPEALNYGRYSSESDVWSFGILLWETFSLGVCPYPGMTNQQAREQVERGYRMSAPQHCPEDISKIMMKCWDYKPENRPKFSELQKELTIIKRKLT
protein kinases (human kinome) (Homo sapiens, UniProt P11802), sequence (P11802 whole entry): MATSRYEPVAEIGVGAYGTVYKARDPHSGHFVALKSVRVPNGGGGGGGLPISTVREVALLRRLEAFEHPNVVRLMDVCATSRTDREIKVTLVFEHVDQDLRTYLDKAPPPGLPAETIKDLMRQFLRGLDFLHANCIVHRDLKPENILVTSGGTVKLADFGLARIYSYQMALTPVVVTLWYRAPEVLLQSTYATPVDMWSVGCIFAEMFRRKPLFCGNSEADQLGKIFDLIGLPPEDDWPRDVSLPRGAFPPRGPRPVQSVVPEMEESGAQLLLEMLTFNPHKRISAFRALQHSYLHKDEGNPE

CC(C)S(=O)(=O)c1ccccc1Nc1nc(Nc2ccc(N3CCN(CCOCCNC(=O)CNc4cccc5c4C(=O)N(C4CCC(=O)NC4=O)C5=O)CC3)cc2)ncc1Cl (centres unmarked) [SK.3.91]
logFC CDK4 (P11802) ([1]; Experiment wp160, 2 hr): −0.9104 | logFC CDK4 (P11802) ([1]; experiment wp016): −1.161 | logFC CDK4 (P11802) ([1]; experiment wp016, 1 uM): −1.429 | logFC CDK4 (P11802) ([1]; experiment wp103): −1.029 | logFC CDK4 (P11802) ([1]; experiment wp105): −0.7995 | logFC CDK4 (P11802) ([1]; experiment wp107): −1.272 | logFC CDK4 (P11802) ([1]; experiment wp114): −0.5605 | logFC CDK4 (P11802) ([1]; experiment wp133, 2 hr): −0.7484 | logFC CDK4 (P11802) ([1]; experiment wp133, 4 hr): −1.292 | logFC CDK4 (P11802) ([1]; experiment wp160, 1 hr): −0.4329 | logFC CDK4 (P11802) ([1]; experiment wp160, 4 hr): −1.353 | logFC of FER (P16591-1) ([2]; Experiment wp016, 1 uM): −3.321 | logFC of FER (P16591-1) ([2]; Experiment wp016): −2.645 | logFC of FER (P16591-1) ([2]; Experiment wp103): −2.81 | logFC of FER (P16591-1) ([2]; Experiment wp105): −2.857 | logFC of FER (P16591-1) ([2]; Experiment wp107): −2.657 | logFC of FER (P16591-1) ([2]; Experiment wp133, 1 hr): −1.132 | logFC of FER (P16591-1) ([2]; Experiment wp133, 2 hr): −2.153 | logFC of FER (P16591-1) ([2]; Experiment wp133, 4 hr): −2.426 | logFC of FER (P16591-1) ([2]; Experiment wp160, 1 hr): −0.8534 | logFC of FER (P16591-1) ([2]; Experiment wp160, 2 hr): −1.88 | logFC of FER (P16591-1) ([2]; Experiment wp160, 4 hr): −1.987 | logFC of FER ([2]; experiment wp016): −2.646 | logFC of FER ([2]; experiment wp016, 1 uM): −3.321 | logFC of FER ([2]; experiment wp103): −2.81 | logFC of FER ([2]; experiment wp105): −2.857 | logFC of FER ([2]; experiment wp107): −2.657 | logFC of FER ([2]; experiment wp133, 1 hr): −1.132 | logFC of FER ([2]; experiment wp133, 2 hr): −2.153 | logFC of FER ([2]; experiment wp133, 4 hr): −2.426 | logFC of FER ([2]; experiment wp160, 1 hr): −0.8534 | logFC of FER ([2]; experiment wp160, 2 hr): −1.88 | logFC of FER ([2]; experiment wp160, 4 hr): −1.987 | logFC LIMK2 ([3]; experiment wp016, 1 uM): −1.441 | logFC LIMK2 ([3]; experiment wp016): −1.061 | logFC LIMK2 ([3]; experiment wp103): −1.431 | logFC LIMK2 ([3]; experiment wp107): −1.878 | logFC LIMK2 ([3]; experiment wp114): −0.8414 | logFC LIMK2 ([3]; experiment wp133, 2 hr): −0.7575 | logFC LIMK2 ([3]; experiment wp133, 4 hr): −1.342 | logFC LIMK2 ([3]; experiment wp172): −0.8984 | logFC of LIMK2 ([3]; experiment wp016): −1.061 | logFC of LIMK2 ([3]; experiment wp016, 1 uM): −1.441 | logFC of LIMK2 ([3]; experiment wp103): −1.431 | logFC of LIMK2 ([3]; experiment wp107): −1.878 | logFC of LIMK2 ([3]; experiment wp114): −0.8414 | logFC of LIMK2 ([3]; experiment wp133, 2 hr): −0.7575 | logFC of LIMK2 ([3]; experiment wp133, 4 hr): −1.342 | logFC of LIMK2 ([3]; experiment wp172): −0.8984 | logFC AAK1 ([4]; AAK1 (Q2M218-1), experiment wp016, 1 uM, down): −1.114 | logFC AAK1 ([4]; AAK1 (Q2M218-1), experiment wp016, down): −1.364 | logFC AAK1 ([4]; AAK1 (Q2M218-1), experiment wp103, down): −0.7763 | logFC AAK1 ([4]; AAK1 (Q2M218-1), experiment wp105, down): −1.575 | logFC AAK1 ([4]; AAK1 (Q2M218-1), experiment wp107, down): −1.059 | logFC AAK1 ([4]; AAK1 (Q2M218-1), experiment wp114, down): −0.8221 | logFC AAK1 ([4]; AAK1 (Q2M218-1), experiment wp133, 2 hr, down): −0.5506 | logFC AAK1 ([4]; AAK1 (Q2M218-1), experiment wp133, 4 hr, down): −1.105 | logFC AAK1 ([4]; AAK1 (Q2M218-1), experiment wp160, 2 hr, down): −0.5153 | logFC AAK1 ([4]; AAK1 (Q2M218-1), experiment wp160, 4 hr, down): −1.008 | logFC AAK1 ([4]; AAK1 (Q2M218-1), experiment wp172, down): −0.9755 | logFC AAK1 ([4]; AAK1, accession Q2M218-1, experiment wp016, 1 uM, direction of change down): −1.114 | logFC AAK1 ([4]; AAK1, accession Q2M218-1, experiment wp016, direction of change down): −1.364 | logFC AAK1 ([4]; AAK1, accession Q2M218-1, experiment wp103, direction of change down): −0.7763 | logFC AAK1 ([4]; AAK1, accession Q2M218-1, experiment wp105, direction of change down): −1.575 | logFC AAK1 ([4]; AAK1, accession Q2M218-1, experiment wp107, direction of change down): −1.059 | logFC AAK1 ([4]; AAK1, accession Q2M218-1, experiment wp114, direction of change down): −0.8221 | logFC AAK1 ([4]; AAK1, accession Q2M218-1, experiment wp133, 2 hr, direction of change down): −0.5506 | logFC AAK1 ([4]; AAK1, accession Q2M218-1, experiment wp133, 4 hr, direction of change down): −1.105 | logFC AAK1 ([4]; AAK1, accession Q2M218-1, experiment wp160, 2 hr, direction of change down): −0.5153 | logFC AAK1 ([4]; AAK1, accession Q2M218-1, experiment wp160, 4 hr, direction of change down): −1.008 | logFC AAK1 ([4]; AAK1, accession Q2M218-1, experiment wp172, direction of change down): −0.9755 | logFC FASTKD2 (Q9NYY8) [5]: −0.4507 | logFC ABL1 ([6]; experiment wp016, 1 uM): −0.3875 | logFC ABL1 ([6]; experiment wp105): −0.333 | logFC ABL1 ([6]; experiment wp107): −0.4711 | logFC ABL1 ([6]; experiment wp133, 4 hr): −0.3801 | logFC ([6]; experiment wp103): −0.3966 | logFC AURKB ([6]; experiment wp103): −0.3966 | logFC ([6]; experiment wp105): −0.7004 | logFC AURKB ([6]; experiment wp105): −0.7004 | logFC ([6]; experiment wp107): −0.443 | logFC AURKB ([6]; experiment wp107): −0.443 | logFC ([6]; experiment wp133, 1 hr): −0.4923 | logFC AURKB ([6]; experiment wp133, 1 hr): −0.4923 | logFC ([6]; experiment wp133, 2 hr): −0.5333 | logFC AURKB ([6]; experiment wp133, 2 hr): −0.5333 | logFC ([6]; experiment wp133, 4 hr): −0.8007 | logFC AURKB ([6]; experiment wp133, 4 hr): −0.8007 | logFC BUB1B ([6]; experiment wp016, 1 uM): −0.4685 | logFC BUB1B ([6]; experiment wp103): −0.3983 | logFC BUB1B ([6]; experiment wp107): −0.5037 | logFC BUB1B ([6]; experiment wp133, 1 hr): −0.4083 | logFC BUB1B ([6]; experiment wp133, 2 hr): −0.4195 | logFC BUB1B ([6]; experiment wp133, 4 hr): −0.5871 | logFC of SRC ([6]; experiment wp016): −0.3847 | logFC of SRC ([6]; experiment wp016, 1 uM): −0.8428 | logFC of SRC ([6]; experiment wp103): −0.5004 | logFC of SRC ([6]; experiment wp105): −0.3464
